# Data as given in the NIST ThermoML archive (doi:10.1021/acs.jced.8b00236).
# Several values for one entry are separate records, joined by “and”; a condition that tells them apart may be missing. Equal values may be shown once. ± gives the expanded uncertainty stated by the source.
# Key:
# [1] = mn = molality of the nth substance listed, in mol/kg; conditions: 75 kPa, Liquid; for viscosity: Capillary tube (Ostwald / Ubbelohde) method; for speed of sound: Frequency=3 MHz, Single path-length method; for mass density: Vibrating tube method
# [2] = 75 kPa, Liquid, Capillary tube (Ostwald / Ubbelohde) method
smiles,measurement,setting,value
[Cl-].[Na+] [sodium chloride] + O,viscosity,"[1]; 288.15 K, m1 = 0.15",1.156 ± 0.024 mPa·s and 1.158 ± 0.024 mPa·s
same,viscosity,"[1]; 288.15 K, m1 = 0.25",1.166 ± 0.024 mPa·s
same,speed of sound,"[1]; 288.15 K, m1 = 0.15",1476.6 ± 4 m/s and 1476.5 ± 4 m/s
same,speed of sound,"[1]; 288.15 K, m1 = 0.25",1483.6 ± 4 m/s and 1483.4 ± 4 m/s and 1483.3 ± 4 m/s
same,mass density,"[1]; 288.15 K, m1 = 0.15",1005.46 ± 0.3 kg/m3 and 1005.45 ± 0.3 kg/m3 and 1005.36 ± 0.3 kg/m3
same,mass density,"[1]; 288.15 K, m1 = 0.25",1009.51 ± 0.3 kg/m3
same,viscosity,"[1]; 293.15 K, m1 = 0.15",1.016 ± 0.021 mPa·s
same,viscosity,"[1]; 293.15 K, m1 = 0.25",1.025 ± 0.021 mPa·s
same,speed of sound,"[1]; 293.15 K, m1 = 0.15",1492.3 ± 4 m/s and 1492.2 ± 4 m/s
same,mass density,"[1]; 293.15 K, m1 = 0.15",1004.48 ± 0.3 kg/m3 [middle of 4 runs]
same,mass density,"[1]; 293.15 K, m1 = 0.25",1008.5 ± 0.3 kg/m3 and 1008.51 ± 0.3 kg/m3
same,viscosity,"[1]; 298.15 K, m1 = 0.15",0.905 ± 0.019 mPa·s and 0.9049 ± 0.019 mPa·s and 0.906 ± 0.019 mPa·s
same,viscosity,"[1]; 298.15 K, m1 = 0.25",0.913 ± 0.019 mPa·s
same,speed of sound,"[1]; 298.15 K, m1 = 0.15",1506.2 ± 4 m/s and 1506 ± 4 m/s and 1506.1 ± 4 m/s
same,speed of sound,"[1]; 298.15 K, m1 = 0.25",1512.5 ± 4 m/s and 1512.3 ± 4 m/s and 1512.2 ± 4 m/s
same,mass density,"[1]; 298.15 K, m1 = 0.15",1003.26 ± 0.3 kg/m3 and 1003.27 ± 0.3 kg/m3 and 1003.18 ± 0.3 kg/m3
same,mass density,"[1]; 298.15 K, m1 = 0.25",1007.26 ± 0.3 kg/m3
same,viscosity,"[1]; 303.15 K, m1 = 0.15",0.811 ± 0.017 mPa·s [middle of 4 runs]
same,viscosity,"[1]; 303.15 K, m1 = 0.25",0.819 ± 0.017 mPa·s
same,speed of sound,"[1]; 303.15 K, m1 = 0.15",1518.2 ± 4 m/s and 1518.1 ± 4 m/s
same,speed of sound,"[1]; 303.15 K, m1 = 0.25",1524.3 ± 4 m/s and 1524.1 ± 4 m/s and 1524 ± 4 m/s
same,mass density,"[1]; 303.15 K, m1 = 0.15",1001.83 ± 0.3 kg/m3 [middle of 4 runs]
same,mass density,"[1]; 303.15 K, m1 = 0.25",1005.78 ± 0.3 kg/m3 and 1005.79 ± 0.3 kg/m3
same,viscosity,"[1]; 308.15 K, m1 = 0.15",0.731 ± 0.015 mPa·s and 0.7306 ± 0.015 mPa·s and 0.732 ± 0.015 mPa·s
same,viscosity,"[1]; 308.15 K, m1 = 0.25",0.739 ± 0.015 mPa·s
same,speed of sound,"[1]; 308.15 K, m1 = 0.15",1528.7 ± 4 m/s and 1528.6 ± 4 m/s
same,speed of sound,"[1]; 308.15 K, m1 = 0.25",1534.3 ± 4 m/s [middle of 5 runs]
same,mass density,"[1]; 308.15 K, m1 = 0.15",1000.11 ± 0.3 kg/m3 [middle of 5 runs]
same,mass density,"[1]; 308.15 K, m1 = 0.25",1004.12 ± 0.3 kg/m3 and 1004.11 ± 0.3 kg/m3
O [water],viscosity,[2]; 288.15 K,1.146 ± 0.024 mPa·s
same,viscosity,[2]; 293.15 K,1.007 ± 0.021 mPa·s and 1.004 ± 0.021 mPa·s
same,viscosity,[2]; 298.15 K,0.893 ± 0.019 mPa·s and 0.8929 ± 0.019 mPa·s
same,viscosity,[2]; 303.15 K,0.797 ± 0.017 mPa·s and 0.7965 ± 0.017 mPa·s
same,viscosity,[2]; 308.15 K,0.719 ± 0.015 mPa·s and 0.7187 ± 0.015 mPa·s
O [water] + NCC(=O)O,viscosity,"[1]; 288.15 K, m2 = 0",1.146 ± 0.024 mPa·s
same,viscosity,"[1]; 293.15 K, m2 = 0",1.007 ± 0.021 mPa·s
same,viscosity,"[1]; 298.15 K, m2 = 0",0.893 ± 0.019 mPa·s
same,viscosity,"[1]; 303.15 K, m2 = 0",0.797 ± 0.017 mPa·s
same,viscosity,"[1]; 308.15 K, m2 = 0",0.719 ± 0.015 mPa·s
O [water] + NCCC(=O)O,viscosity,"[1]; 288.15 K, m2 = 0",1.146 ± 0.024 mPa·s
same,viscosity,"[1]; 293.15 K, m2 = 0",1.004 ± 0.021 mPa·s
same,viscosity,"[1]; 298.15 K, m2 = 0",0.8929 ± 0.019 mPa·s
same,viscosity,"[1]; 303.15 K, m2 = 0",0.7965 ± 0.017 mPa·s
same,viscosity,"[1]; 308.15 K, m2 = 0",0.7187 ± 0.015 mPa·s
O [water] + NCCCC(=O)O,viscosity,"[1]; 288.15 K, m2 = 0",1.146 ± 0.024 mPa·s
same,viscosity,"[1]; 293.15 K, m2 = 0",1.004 ± 0.021 mPa·s
same,viscosity,"[1]; 298.15 K, m2 = 0",0.893 ± 0.019 mPa·s
same,viscosity,"[1]; 303.15 K, m2 = 0",0.797 ± 0.017 mPa·s
same,viscosity,"[1]; 308.15 K, m2 = 0",0.719 ± 0.015 mPa·s
O [water] + NCCCCC(=O)O,viscosity,"[1]; 288.15 K, m2 = 0",1.146 ± 0.024 mPa·s
same,viscosity,"[1]; 293.15 K, m2 = 0",1.004 ± 0.021 mPa·s
same,viscosity,"[1]; 298.15 K, m2 = 0",0.893 ± 0.019 mPa·s
same,viscosity,"[1]; 303.15 K, m2 = 0",0.797 ± 0.017 mPa·s
same,viscosity,"[1]; 308.15 K, m2 = 0",0.719 ± 0.015 mPa·s
O [water] + NCCCCCC(=O)O,viscosity,"[1]; 288.15 K, m2 = 0",1.146 ± 0.024 mPa·s
same,viscosity,"[1]; 293.15 K, m2 = 0",1.004 ± 0.021 mPa·s
same,viscosity,"[1]; 298.15 K, m2 = 0",0.893 ± 0.019 mPa·s
same,viscosity,"[1]; 303.15 K, m2 = 0",0.797 ± 0.017 mPa·s
same,viscosity,"[1]; 308.15 K, m2 = 0",0.719 ± 0.015 mPa·s
